Measurements as given in US7858635B2 (priority 2005, dated 2010).

Key:
M4 muscarinic receptor = target: T1, M4 muscarinic receptor (Homo sapiens, UniProt P08173); test: Functional mobilization of intracellular calcium (FLIPR, Fluo-3), M4-CHO cells; type: cell-based; conditions: compound nos. 1-454; for Emax: read-out: M4 Efficacy; for M4 Activity: M4-CHO cells, calcium mobilization
T1 construct: expressed in transfected cells; host or cells: CHO cells (M4-CHO, under puromycin, zeocin and blasticidin selection)
T1 sequence (P08173 1-479): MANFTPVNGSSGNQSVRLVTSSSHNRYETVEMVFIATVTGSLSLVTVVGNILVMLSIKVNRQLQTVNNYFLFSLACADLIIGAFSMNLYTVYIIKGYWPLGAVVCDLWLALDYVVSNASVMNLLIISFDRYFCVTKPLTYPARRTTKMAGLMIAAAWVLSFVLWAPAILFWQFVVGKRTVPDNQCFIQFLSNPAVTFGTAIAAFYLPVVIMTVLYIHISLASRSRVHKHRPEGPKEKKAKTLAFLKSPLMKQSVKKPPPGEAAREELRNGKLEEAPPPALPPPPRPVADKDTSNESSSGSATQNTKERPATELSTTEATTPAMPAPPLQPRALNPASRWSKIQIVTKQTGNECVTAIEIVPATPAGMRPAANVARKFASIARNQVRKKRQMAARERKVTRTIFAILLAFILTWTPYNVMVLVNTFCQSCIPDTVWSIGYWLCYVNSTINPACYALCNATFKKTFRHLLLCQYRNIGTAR
In short: (§1)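 CHO lines stably carrying the muscarinic subtype, dye-loaded with Fluo-3 at 37° C for 60-90 min, receive test compound in 0.5% DMSO. Agonist effects are read directly; antagonist effects against carbachol at EC80 after 15 min pre-incubation.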

M1 muscarinic receptor = target: T2, M1 muscarinic receptor (Homo sapiens, UniProt P11229); test: Functional mobilization of intracellular calcium (FLIPR, Fluo-3), M1-CHO cells; type: cell-based; conditions: compound nos. 1-454; for Emax: read-out: M1 Efficacy; for M1 Activity: M1-CHO cells, calcium mobilization
T2 construct: expressed in transfected cells; host or cells: CHO cells (M1-CHO, under zeocin and G418 selection)
T2 sequence (P11229 1-460): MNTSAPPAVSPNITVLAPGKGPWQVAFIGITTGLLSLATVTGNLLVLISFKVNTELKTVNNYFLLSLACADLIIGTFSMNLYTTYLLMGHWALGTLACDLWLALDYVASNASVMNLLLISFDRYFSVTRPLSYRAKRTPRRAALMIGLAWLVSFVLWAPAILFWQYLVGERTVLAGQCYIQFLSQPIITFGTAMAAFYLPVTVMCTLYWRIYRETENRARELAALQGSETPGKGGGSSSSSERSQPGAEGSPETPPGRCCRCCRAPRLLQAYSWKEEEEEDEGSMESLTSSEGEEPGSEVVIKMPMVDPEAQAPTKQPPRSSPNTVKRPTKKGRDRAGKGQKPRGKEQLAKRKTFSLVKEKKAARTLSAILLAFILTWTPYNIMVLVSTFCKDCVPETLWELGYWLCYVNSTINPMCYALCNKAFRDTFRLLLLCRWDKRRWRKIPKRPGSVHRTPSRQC
In short: as §1

[1] = 100% efficacy is the maximum response obtained with the Carbachol control

## CC(=O)N1CC2(CCN(C3CCCCC3C)CC2)c2cc(F)ccc21 (stereo not shown) [compound 52]
M4 muscarinic receptor; [1]
  Emax: 55 to 70%
M4 muscarinic receptor
  M4 Activity: +++ (activity was measured to be less than or equal to 0.1 μM)
M1 muscarinic receptor; [1]
  Emax: > 85%
M1 muscarinic receptor
  M1 Activity: +++ (activity was measured to be less than or equal to 0.7 μM)

## CCOC(=O)N1CCC(N2CCC3(CC2)CN(C(=O)c2ccccc2C)c2ccc(F)cc23)CC1 [compound 53]
M4 muscarinic receptor; [1]
  Emax: 55 to 70%
M4 muscarinic receptor
  M4 Activity: ++ (activity was measured to be between 0.1 μM and 4.0 μM)
M1 muscarinic receptor; [1]
  Emax: < 65%
M1 muscarinic receptor
  M1 Activity: ++ (activity was measured to be between 0.7 μM and 3.0 μM)

## CC(C)OC(=O)N1CCC(N2CCC3(CC2)CN(C(=O)N(C)C)c2ccc(F)cc23)CC1 [compound 54]
M4 muscarinic receptor; [1]
  Emax: 55 to 70%
M4 muscarinic receptor
  M4 Activity: ++ (activity was measured to be between 0.1 μM and 4.0 μM)
M1 muscarinic receptor; [1]
  Emax: > 85%
M1 muscarinic receptor
  M1 Activity: +++ (activity was measured to be less than or equal to 0.7 μM)

## CC(C)C(=O)N[C@H]1CC2(CCN(C[C@H]3C[C@H]4CC[C@H]3C4)CC2)c2ccccc21 [compound 55]
M4 muscarinic receptor; [1]
  Emax: 55 to 70%
M4 muscarinic receptor
  M4 Activity: +++ (activity was measured to be less than or equal to 0.1 μM)
M1 muscarinic receptor; [1]
  Emax: > 85%
M1 muscarinic receptor
  M1 Activity: +++ (activity was measured to be less than or equal to 0.7 μM)

## CCOC(=O)N1C2CCC1CC(N1CCC3(CC1)CC(=O)Nc1ccccc13)C2 (stereo not shown) [compound 56]
M4 muscarinic receptor; [1]
  Emax: 55 to 70%
M4 muscarinic receptor
  M4 Activity: +++ (activity was measured to be less than or equal to 0.1 μM)
M1 muscarinic receptor; [1]
  Emax: 65 to 85%
M1 muscarinic receptor
  M1 Activity: +++ (activity was measured to be less than or equal to 0.7 μM)

## O=C(C1CC1)N1CC2(CCN(C3CC4CCC(C3)N4C(=O)O[C@H]3CCOC3)CC2)c2cc(F)ccc21 (stereo partly shown) [compound 57]
M4 muscarinic receptor; [1]
  Emax: 55 to 70%
M4 muscarinic receptor
  M4 Activity: +++ (activity was measured to be less than or equal to 0.1 μM)
M1 muscarinic receptor; [1]
  Emax: 65 to 85%
M1 muscarinic receptor
  M1 Activity: +++ (activity was measured to be less than or equal to 0.7 μM)

## CCOC(=O)N1CCC(N2CCC3(CC2)CN(C(C)=O)c2ccc(-c4ccc(C)cc4)cc23)CC1 [compound 58, ethyl 4-(1-acetyl-5-p-tolylspiro[indoline-3,4′-piperidine]-1′-yl)piperidine-1-carboxylate]
M4 muscarinic receptor; [1]
  Emax: 55 to 70%
M4 muscarinic receptor
  M4 Activity: ++ (activity was measured to be between 0.1 μM and 4.0 μM)
M1 muscarinic receptor; [1]
  Emax: 65 to 85%
M1 muscarinic receptor
  M1 Activity: +++ (activity was measured to be less than or equal to 0.7 μM)

## CCOC(=O)N1C2CCC1CC(N1CCC3(CC1)CN(C(=O)c1snnc1C)c1ccc(F)cc13)C2 (stereo not shown) [compound 59]
M4 muscarinic receptor; [1]
  Emax: 55 to 70%
M4 muscarinic receptor
  M4 Activity: ++ (activity was measured to be between 0.1 μM and 4.0 μM)
M1 muscarinic receptor; [1]
  Emax: < 65%
M1 muscarinic receptor
  M1 Activity: +++ (activity was measured to be less than or equal to 0.7 μM)

## CCOC(=O)N1CCC(CN2CCC3(CC2)CN(C(C)=O)c2ccc(F)cc23)CC1 [compound 60]
M4 muscarinic receptor; [1]
  Emax: 55 to 70%
M4 muscarinic receptor
  M4 Activity: + (activity was measured to be greater than or equal to 4.0 μM)
M1 muscarinic receptor; [1]
  Emax: 65 to 85%
M1 muscarinic receptor
  M1 Activity: ++ (activity was measured to be between 0.7 μM and 3.0 μM)

## CCOC(=O)N1CCC(N2CCC3(CC2)C[C@H](NC(C)=O)c2ccccc23)CC1 [compound 61]
M4 muscarinic receptor; [1]
  M4 Efficacy: ++ (efficacy was calculated to be between 70% and 55%)
M4 muscarinic receptor
  M4 Activity: ++ (activity was measured to be between 0.1 μM and 4.0 μM)
M1 muscarinic receptor; [1]
  M1 Efficacy: ++ (efficacy was calculated to be between 85% and 65%)
M1 muscarinic receptor
  M1 Activity: +++ (activity was measured to be less than or equal to 0.7 μM)

## C#CCCOC(=O)N1CCC(N2CCC3(CC2)CN(C(C)=O)c2ccc(F)cc23)CC1 [compound 62]
M4 muscarinic receptor; [1]
  Emax: 55 to 70%
M4 muscarinic receptor
  M4 Activity: ++ (activity was measured to be between 0.1 μM and 4.0 μM)
M1 muscarinic receptor; [1]
  Emax: < 65%
M1 muscarinic receptor
  M1 Activity: +++ (activity was measured to be less than or equal to 0.7 μM)

## CCOC(=O)N1CCC(N2CCC3(CC2)CN(C(=O)OCC(C)(C)C)c2ccc(F)cc23)CC1 [compound 63]
M4 muscarinic receptor; [1]
  Emax: < 55%
M4 muscarinic receptor
  M4 Activity: + (activity was measured to be greater than or equal to 4.0 μM)
M1 muscarinic receptor; [1]
  Emax: < 65%
M1 muscarinic receptor
  M1 Activity: +++ (activity was measured to be less than or equal to 0.7 μM)

## COCCOC(=O)N1CCCC(N2CCC3(CC2)CN(C(C)=O)c2ccc(F)cc23)CC1 (stereo not shown) [compound 65]
M4 muscarinic receptor; [1]
  Emax: < 55%
M4 muscarinic receptor
  M4 Activity: + (activity was measured to be greater than or equal to 4.0 μM)
M1 muscarinic receptor; [1]
  Emax: 65 to 85%
M1 muscarinic receptor
  M1 Activity: ++ (activity was measured to be between 0.7 μM and 3.0 μM)

## CCOC(=O)N1CCC(N2CCC3(CC2)CN(C(=O)c2ccc(OC(F)(F)F)cc2)c2ccc(F)cc23)CC1 [compound 66]
M4 muscarinic receptor; [1]
  Emax: > 70%
M4 muscarinic receptor
  M4 Activity: +++ (activity was measured to be less than or equal to 0.1 μM)
M1 muscarinic receptor; [1]
  Emax: > 85%
M1 muscarinic receptor
  M1 Activity: +++ (activity was measured to be less than or equal to 0.7 μM)

## CC(=O)N1CC2(CCN(C3CC4CCC(C3)N4C(=O)O[C@@H]3CCOC3)CC2)c2cc(F)ccc21 (stereo partly shown) [compound 67]
M4 muscarinic receptor; [1]
  Emax: < 55%
M4 muscarinic receptor
  M4 Activity: ++ (activity was measured to be between 0.1 μM and 4.0 μM)
M1 muscarinic receptor; [1]
  Emax: < 65%
M1 muscarinic receptor
  M1 Activity: +++ (activity was measured to be less than or equal to 0.7 μM)

## O=C(OC1CCC1)N1C2CCC1CC(N1CCC3(CCc4ccccc43)CC1)C2 (stereo not shown) [compound 68]
M4 muscarinic receptor; [1]
  Emax: < 55%
M4 muscarinic receptor
  M4 Activity: + (activity was measured to be greater than or equal to 4.0 μM)
M1 muscarinic receptor; [1]
  Emax: < 65%
M1 muscarinic receptor
  M1 Activity: ++ (activity was measured to be between 0.7 μM and 3.0 μM)

## O=C(C1CCC1)N1CC2(CCN(C3CC4CCC(C3)N4C(=O)O[C@@H]3CCOC3)CC2)c2cc(F)ccc21 (stereo partly shown) [compound 69]
M4 muscarinic receptor; [1]
  Emax: < 55%
M4 muscarinic receptor
  M4 Activity: ++ (activity was measured to be between 0.1 μM and 4.0 μM)
M1 muscarinic receptor; [1]
  Emax: < 65%
M1 muscarinic receptor
  M1 Activity: ++ (activity was measured to be between 0.7 μM and 3.0 μM)

## CS(=O)(=O)N[C@H]1CC2(CCN(C[C@H]3C[C@H]4C=C[C@H]3C4)CC2)c2ccccc21 [compound 70]
M4 muscarinic receptor; [1]
  Emax: 55 to 70%
M4 muscarinic receptor
  M4 Activity: + (activity was measured to be greater than or equal to 4.0 μM)
M1 muscarinic receptor; [1]
  Emax: 65 to 85%
M1 muscarinic receptor
  M1 Activity: ++ (activity was measured to be between 0.7 μM and 3.0 μM)

## COCCOC(=O)N1C2CCC1CC(N1CCC3(CC1)C(=O)Nc1ccccc13)C2 (stereo not shown) [compound 71]
M4 muscarinic receptor; [1]
  Emax: < 55%
M4 muscarinic receptor
  M4 Activity: ++ (activity was measured to be between 0.1 μM and 4.0 μM)
M1 muscarinic receptor; [1]
  Emax: < 65%
M1 muscarinic receptor
  M1 Activity: +++ (activity was measured to be less than or equal to 0.7 μM)

## Cc1ccc2c(c1)C1(CCN(C3C4CCCC3CCC4)CC1)CN2 (stereo not shown) [compound 72]
M4 muscarinic receptor; [1]
  Emax: 55 to 70%
M4 muscarinic receptor
  M4 Activity: ++ (activity was measured to be between 0.1 μM and 4.0 μM)
M1 muscarinic receptor; [1]
  Emax: 65 to 85%
M1 muscarinic receptor
  M1 Activity: +++ (activity was measured to be less than or equal to 0.7 μM)

## CCOC(=O)N1C2CCC1CC(N1CCC3(CC1)CN(C(=O)c1cc(C)oc1C)c1ccc(F)cc13)C2 (stereo not shown) [compound 73]
M4 muscarinic receptor; [1]
  Emax: 55 to 70%
M4 muscarinic receptor
  M4 Activity: ++ (activity was measured to be between 0.1 μM and 4.0 μM)
M1 muscarinic receptor; [1]
  Emax: 65 to 85%
M1 muscarinic receptor
  M1 Activity: +++ (activity was measured to be less than or equal to 0.7 μM)

## CCCc1ccc2c(c1)C1(CCN(C3CCN(C(=O)OCC)CC3)CC1)CN2C(C)=O [compound 74]
M4 muscarinic receptor; [1]
  Emax: 55 to 70%
M4 muscarinic receptor
  M4 Activity: ++ (activity was measured to be between 0.1 μM and 4.0 μM)
M1 muscarinic receptor; [1]
  Emax: 65 to 85%
M1 muscarinic receptor
  M1 Activity: +++ (activity was measured to be less than or equal to 0.7 μM)

## CC(=O)N1CC2(CCN(CC3CCCOC3)CC2)c2cc(F)ccc21 (stereo not shown) [compound 75]
M4 muscarinic receptor; [1]
  Emax: 55 to 70%
M4 muscarinic receptor
  M4 Activity: ++ (activity was measured to be between 0.1 μM and 4.0 μM)
M1 muscarinic receptor; [1]
  Emax: < 65%
M1 muscarinic receptor
  M1 Activity: +++ (activity was measured to be less than or equal to 0.7 μM)

## COCCOC(=O)N1C2CCC1CC(N1CCC3(CC1)CN(C(C)=O)c1ccc(F)cc13)C2 (stereo not shown) [compound 76]
M4 muscarinic receptor; [1]
  Emax: 55 to 70%
M4 muscarinic receptor
  M4 Activity: ++ (activity was measured to be between 0.1 μM and 4.0 μM)
M1 muscarinic receptor; [1]
  Emax: 65 to 85%
M1 muscarinic receptor
  M1 Activity: +++ (activity was measured to be less than or equal to 0.7 μM)

## CCOC(=O)N1CCC(N2CCC3(CC2)CN(C(=O)c2ccc(F)cc2)c2ccc(F)cc23)CC1 [compound 77]
M4 muscarinic receptor; [1]
  Emax: < 55%
M4 muscarinic receptor
  M4 Activity: ++ (activity was measured to be between 0.1 μM and 4.0 μM)
M1 muscarinic receptor; [1]
  Emax: 65 to 85%
M1 muscarinic receptor
  M1 Activity: +++ (activity was measured to be less than or equal to 0.7 μM)
